Results from patent US11957684B2, “Treatment of heavy menstrual bleeding associated with uterine fibroids” (Sumitomo Pharma Switzerland GmbH, priority 2016, dated 2024).
Read-outs that look alike come from different tables or passages of the source.

Columns and labels:
[1] = system: endometriosis-associated pain; format: in vivo, human; conditions: 3.75 mg sc/4 wk
Description: Subjects assessed and recorded their own quality of life (QOL) using the EHP-30 once a month during the study visit. As used in the examples, the VAS score was evaluated using a 100 mm scale. For pain intensity, the scale was anchored by “no pain” (score of 0) and “pain as bad as you can imagine” (score of 100). […] The above items were evaluated using a patient diary that was distributed by the sponsor. Subjects filled out the patient diary every day during the treatment period or until early termination. If taking prohibited analgesics, subjects recorded this fact in the patient diary along with the accompanying pain symptoms before use of analgesics. As used in the examples, pain during menstruation and pelvic pain unrelated to menstruation were evaluated using scores on the M-B&B and B&B. The M-B&B scores were recorded by subjects on the patient diary supplied by the sponsor. Subjects filled out the patient diary every day during the treatment period or until early termination. If taking prohibited analgesics, subjects recorded this fact in the patient diary along with the accompanying pain symptoms before use of analgesics. The investigator or subinvestigator assessed each patient's pain through interviews and filled out a B&B once a month. The items that were assessed are shown below. The M-B&B score included: dysmenorrhea (severe, moderate, mild, no pain, or no menstruation); pelvic pain (severe, moderate, mild, or no pain); deep dyspareunia (severe, moderate, mild, no pain, or no intercourse). The B&B score included: dysmenorrhea (severe, moderate, mild, none, or not applicable); dyspareunia (severe, moderate, mild, none, or not applicable); pelvic pain (severe, moderate, mild, or none); pelvic tenderness (severe, moderate, mild, or none); and induration (severe, moderate, mild, or none). As used in the examples, the EHP-30 score was obtained by subjects assessing and recording their own QOL using the EHP-30 questionnaire.

uterine fibroids = experiment: Example 10 phase 3 study versus leuprorelin in uterine fibroids: efficacy; format: in vivo, human; conditions: between Week 6 and Week 12
Description: Subjects were aged 20 years or older inclusive, with uterine fibroids. […] The number of sites for this study was approximately 40.
The leuprorelin subjects were administered 1.88 mg leuprorelin, 3.75 mg leuprorelin, or placebo subcutaneously once every 4 weeks. The duration of treatment for both groups was 24 weeks, and the follow-up period was 4 weeks.
Assessment included answers to the uterine fibroid symptom and quality of life questionnaire provided in FIGS. 3A-3C; answers to the work productivity and activity impairment questionnaire: general health provided in FIGS. 66A-66B; clinical laboratory tests for hematology, chemistries, urinalysis, hormone, and biochemical bone metabolism markers.

[2] = end of treatment, listed as leuprorelin

CCNC(=O)[C@@H]1CCCN1C(=O)[C@H](CCCNC(=N)N)NC(=O)[C@H](CC(C)C)NC(=O)[C@@H](CC(C)C)NC(=O)[C@H](Cc1ccc(O)cc1)NC(=O)[C@H](CO)NC(=O)[C@H](Cc1c[nH]c2ccccc12)NC(=O)[C@H](Cc1c[nH]cn1)NC(=O)[C@@H]1CCC(=O)N1 [leuprolide acetate, reference compound]
change from baseline in mean VAS, dysmenorrhea ([1]; Day 1-28): −9.985±15.7027 mm
change from baseline in mean VAS, dyspareunia ([1]; Day 1-28): −3.126±17.0520 mm
change from baseline in mean VAS, pelvic pain ([1]; Day 1-28): −4.282±7.3628 mm
mean VAS score, dysmenorrhea ([1]; Day 1-28): 17.133±19.4179 mm
mean VAS score, dyspareunia ([1]; Day 1-28): 7.288±16.2960 mm
mean VAS score, pelvic pain ([1]; Day 1-28): 10.899±14.8866 mm
change from baseline in mean VAS, dysmenorrhea ([1]; Day 57-84): −27.558±19.9878 mm
change from baseline in mean VAS, dyspareunia ([1]; Day 57-84): −6.752±10.5824 mm
change from baseline in mean VAS, pelvic pain ([1]; Day 57-84): −10.364±10.4428 mm
mean VAS score, dysmenorrhea ([1]; Day 57-84): 0.000±0.0000 mm
mean VAS score, dyspareunia ([1]; Day 57-84): 5.478±10.7612 mm
mean VAS score, pelvic pain ([1]; Day 57-84): 5.013±12.0454 mm
change from baseline in mean VAS, dysmenorrhea ([1]; Day 141-168): −28.373±20.7287 mm
change from baseline in mean VAS, dyspareunia ([1]; Day 141-168): −4.953±16.9523 mm
change from baseline in mean VAS, pelvic pain ([1]; Day 141-168): −13.804±12.8288 mm
mean VAS score, dysmenorrhea ([1]; Day 141-168): 0.000±0.0000 mm
mean VAS score, dyspareunia ([1]; Day 141-168): 5.565±12.5556 mm
mean VAS score, pelvic pain ([1]; Day 141-168): 2.167±5.1999 mm
change from baseline in EHP-30, Self-image ([1]; Week 24): −9.42±15.553
change from baseline in EHP-30, control & powerlessness ([1]; Week 24): −24.80±23.839
change from baseline in EHP-30, emotional well-being ([1]; Week 24): −12.37±18.332
change from baseline in EHP-30, pain ([1]; Week 24): −26.38±20.341
change from baseline in EHP-30, social support ([1]; Week 24): −10.46±17.923
change from baseline in mean B&B score, dysmenorrhea ([1]; Week 24): −2.1±0.49
change from baseline in mean B&B score, dyspareunia ([1]; Week 24): −0.5±0.88
change from baseline in mean B&B score, induration ([1]; Week 24): −0.8±0.82
change from baseline in mean B&B score, pelvic pain ([1]; Week 24): −1.2±0.72
change from baseline in mean B&B score, pelvic tenderness ([1]; Week 24): −1.1±0.78
subjects without pain in B&B score, dysmenorrhea ([1]; Week 24): 100%
subjects without pain in B&B score, dyspareunia ([1]; Week 24): 70.6%
subjects without pain in B&B score, induration ([1]; Week 24): 75.4%
subjects without pain in B&B score, pelvic pain ([1]; Week 24): 68.9%
subjects without pain in B&B score, pelvic tenderness ([1]; Week 24): 70.5%
change from baseline in maximum M-B&B score, dysmenorrhea ([1]; end of treatment): −1.9±0.69
change from baseline in maximum M-B&B score, dyspareunia ([1]; end of treatment): −0.4±0.78
change from baseline in maximum M-B&B score, pelvic pain ([1]; end of treatment): −1.3±0.82
change from baseline in maximum VAS, dysmenorrhea ([1]; end of treatment): −51.8±27.01 mm
change from baseline in maximum VAS, dyspareunia ([1]; end of treatment): −10.3±19.76 mm
change from baseline in maximum VAS, pelvic pain ([1]; end of treatment): −46.8±26.29 mm
change from baseline in mean M-B&B score, deep dyspareunia ([1]; end of treatment): −0.208±0.5604
change from baseline in mean M-B&B score, dysmenorrhea ([1]; end of treatment): −1.160±0.4802
change from baseline in mean M-B&B score, pelvic pain ([1]; end of treatment): −0.483±0.4860
change from baseline in mean VAS, dysmenorrhea ([1]; end of treatment): −26.944±19.9212 mm
change from baseline in mean VAS, dyspareunia ([1]; end of treatment): −4.593±15.0878 mm
change from baseline in mean VAS, pelvic pain ([1]; end of treatment): −12.552±12.5609 mm
change from baseline in mean score of amount of bleeding (0 to 5) ([1]; end of treatment): −2.320±0.7281
change in proportion of days without pain (M-B&B), deep dyspareunia ([1]; end of treatment): 21.76±43.266%
change in proportion of days without pain (M-B&B), dysmenorrhea ([1]; end of treatment): 80.29±23.327%
change in proportion of days without pain (M-B&B), pelvic pain ([1]; end of treatment): 33.42±34.007%
change in proportion of days without pain (VAS), dysmenorrhea ([1]; end of treatment): 82.09±24.051%
change in proportion of days without pain (VAS), dyspareunia ([1]; end of treatment): 21.76±43.266%
change in proportion of days without pain (VAS), pelvic pain ([1]; end of treatment): 40.70±33.342%
mean VAS score, dysmenorrhea ([1]; end of treatment): 0.174±1.1623 mm
mean VAS score, dyspareunia ([1]; end of treatment): 4.913±10.6249 mm
mean VAS score, pelvic pain ([1]; end of treatment): 2.629±5.5783 mm
subjects who achieved amenorrhea ([1]; end of treatment): 97.5%
subjects without pain in M-B&B score, dysmenorrhea ([1]; end of treatment): 97.5%
subjects without pain in M-B&B score, dyspareunia ([1]; end of treatment): 56.5%
subjects without pain in M-B&B score, pelvic pain ([1]; end of treatment): 63.8%
subjects without pain in VAS score, dysmenorrhea ([1]; end of treatment): 97.5%
subjects without pain in VAS score, dyspareunia ([1]; end of treatment): 56.5%
subjects without pain in VAS score, pelvic pain ([1]; end of treatment): 56.8%
change from baseline in mean VAS, pelvic pain [1, 2]: −12.552 mm
subjects without pain in VAS score, pelvic pain [1, 2]: 57%
proportion of subjects with a PBAC <10 (uterine fibroids): 83.1%
